Experimental data reported in paper PMC11079024, “Identification of a family of species-selective complex I inhibitors as potential anthelmintics” (Nature Communications, 2024).
“And” between values parts separate entries of the source, which are not always exact repeats. Identical values can stand only once. Like-named read-outs stand apart in the source and are kept apart here.

Biological target: C. elegans (N2) complex I (NADH:ubiquinone oxidoreductase) (Caenorhabditis elegans, UniProt P24887+Q93873+Q94360)
Test: biochemical
Format: biochemical
How it was run: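 Compounds were tested against freeze-thawed isolated mitochondria (0.2 mg/mL protein). NADH:decylubiquinone activity was monitored via DCIP absorbance at 600 nm, and the initial linear slope was normalised to solvent controls.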

[1] = wild-type C. elegans, individual Rep1-Rep4, read-out: percent in vitro complex I activity relative to solvent control, single replicates
[2] = wild-type C. elegans, mean of Rep1-4, read-out: percent in vitro complex I activity relative to solvent control, Mean
[3] = N2 wild-type mitochondria, Fig. 4d data set, mean of replicates, read-out: percent (%) in vitro complex I activity relative to solvent control
[4] = wild-type C. elegans mitochondria, mean of replicates, read-out: percent (%) in vitro complex I activity relative to solvent control
[5] = C. elegans mitochondria, Mean of replicates, read-out: in vitro complex I activity relative to solvent control
[6] = C. elegans mitochondria, single replicate, read-out: in vitro complex I activity relative to solvent control
[7] = C. elegans mitochondria, Mean, read-out: in vitro complex I activity relative to solvent control

C. elegans (N2) complex I (NADH:ubiquinone oxidoreductase), sequence (Q94360 17-199): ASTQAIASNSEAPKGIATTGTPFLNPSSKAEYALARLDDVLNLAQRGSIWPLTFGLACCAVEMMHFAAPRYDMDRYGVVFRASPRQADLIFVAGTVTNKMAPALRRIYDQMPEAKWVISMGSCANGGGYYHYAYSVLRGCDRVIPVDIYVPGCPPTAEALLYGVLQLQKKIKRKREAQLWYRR
C. elegans (N2) complex I (NADH:ubiquinone oxidoreductase), sequence (P24887 whole entry): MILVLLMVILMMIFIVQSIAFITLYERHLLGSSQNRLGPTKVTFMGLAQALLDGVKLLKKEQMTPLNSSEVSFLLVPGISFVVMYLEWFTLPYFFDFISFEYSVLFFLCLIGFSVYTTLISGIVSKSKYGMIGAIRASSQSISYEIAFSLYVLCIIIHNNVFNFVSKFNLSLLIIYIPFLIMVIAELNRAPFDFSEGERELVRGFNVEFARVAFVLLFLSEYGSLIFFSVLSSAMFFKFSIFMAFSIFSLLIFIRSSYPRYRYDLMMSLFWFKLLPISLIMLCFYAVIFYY
C. elegans (N2) complex I (NADH:ubiquinone oxidoreductase), sequence (Q93873 31-482): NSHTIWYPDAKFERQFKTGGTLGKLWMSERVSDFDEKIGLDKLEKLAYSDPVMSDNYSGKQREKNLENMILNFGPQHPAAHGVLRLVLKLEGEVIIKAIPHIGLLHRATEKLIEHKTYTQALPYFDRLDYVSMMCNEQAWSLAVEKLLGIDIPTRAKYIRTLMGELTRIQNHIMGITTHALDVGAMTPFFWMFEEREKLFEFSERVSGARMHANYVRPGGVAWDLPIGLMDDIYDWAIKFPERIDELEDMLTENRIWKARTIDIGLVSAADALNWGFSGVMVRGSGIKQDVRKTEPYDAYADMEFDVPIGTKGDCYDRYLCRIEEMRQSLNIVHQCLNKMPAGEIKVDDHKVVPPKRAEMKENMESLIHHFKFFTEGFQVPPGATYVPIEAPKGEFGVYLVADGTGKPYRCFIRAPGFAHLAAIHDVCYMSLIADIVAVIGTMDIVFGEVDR

Which results are given for `CC(C)Cc1ccc(C(C)c2nc3ccccc3n2C)cc1` (centres unmarked) [NPD8790]?
remaining activity at 0.0001 µM [1]: 100%; remaining activity at 0.0001 µM [2]: 96.6%; remaining activity at 0.0005 µM [1]: 105%; remaining activity at 0.0005 µM [2]: 96.5%; remaining activity at 0.001 µM [1]: 99%; remaining activity at 0.001 µM [2]: 92.6%; remaining activity at 0.0025 µM [1]: 107%; remaining activity at 0.0025 µM [2]: 98.8%; remaining activity at 0.005 µM [1]: 102%; remaining activity at 0.005 µM [2]: 95.9%; remaining activity at 0.013 µM [2]: 106%; remaining activity at 0.025 µM [1]: 102%; remaining activity at 0.025 µM [2]: 98.2%; remaining activity at 0.063 µM [2]: 95.6%; remaining activity at 0.125 µM [3]: 96.6%; remaining activity at 0.125 µM (N2 wild-type mitochondria, Fig. 4d data set, single replicate, read-out: percent (%) in vitro complex I activity relative to solvent control): 94.3%; remaining activity at 0.125 µM [4]: 102%; remaining activity at 0.125 µM (wild-type C. elegans mitochondria, single replicate, read-out: percent (%) in vitro complex I activity relative to solvent control): 95.7%; remaining activity at 0.125 µM [1]: 95.7%; remaining activity at 0.125 µM [2]: 92%; remaining activity at 0.313 µM [3]: 90.9%; remaining activity at 0.313 µM [4]: 93%; remaining activity at 0.313 µM [1]: 86.3%; remaining activity at 0.313 µM [2]: 81.9%; remaining activity at 0.625 µM [3]: 93.2%; remaining activity at 0.625 µM [4]: 87%; remaining activity at 0.625 µM [2]: 83.7%; remaining activity at 1.5 µM [3]: 78.9%; remaining activity at 1.5 µM [4]: 72.5%; remaining activity at 1.5 µM [2]: 70.3%; remaining activity at 3 µM [3]: 61.6%; remaining activity at 3 µM [4]: 52.5%; remaining activity at 3 µM [2]: 49.5%; remaining activity at 15 µM [3]: 8.9%; remaining activity at 15 µM [4]: 7.83%; remaining activity at 15 µM [2]: 8.01%; remaining activity at 37.5 µM [3]: 5.01%; remaining activity at 37.5 µM [4]: 3.88%; remaining activity at 37.5 µM [2]: 3.5%; remaining activity at 75 µM (75 µM, wild-type C. elegans, mean of Rep1-4, read-out: percent in vitro complex I activity relative to solvent control, Mean): 13.3%; activity at 100 µM (100 µM compound, relative to solvent control, mean (SEM), read-out: % Activity Complex I): 5.34%; Percent in vitro activity, Complex I (single replicate Rep1-Rep4) (100 μM of NPD compound, C. elegans mitochondria, individual biological replicates, 100 µM): 0.000% and 4.423% and 13.672% and 3.252%; activity at 100 µM (100 μM of NPD compound, C. elegans mitochondria, mean of four biological replicates, read-out: Percent in vitro activity, Complex I (Mean)): 5.34%; remaining activity at 0.06 µM (C. elegans mitochondria, 0.06 µM, Mean of replicates, read-out: in vitro complex I activity relative to solvent control): 109%; remaining activity at 0.13 µM [5]: 102%; remaining activity at 0.13 µM [6]: 112%; remaining activity at 0.313 µM [5]: 93%; remaining activity at 0.625 µM [5]: 87%; remaining activity at 1.5 µM [5]: 72.5%; remaining activity at 3 µM [5]: 52.5%; remaining activity at 15 µM [5]: 7.83%; remaining activity at 37.5 µM [5]: 3.88%; remaining activity at 0.0001 µM [7]: 104%; remaining activity at 0.0005 µM [7]: 106%; remaining activity at 0.0005 µM [6]: 105%; remaining activity at 0.001 µM [7]: 104%; remaining activity at 0.0025 µM [7]: 109%; remaining activity at 0.0025 µM [6]: 107%; remaining activity at 0.005 µM [7]: 107%; remaining activity at 0.013 µM [7]: 115%; remaining activity at 0.025 µM [7]: 108%; remaining activity at 0.025 µM [6]: 102%; remaining activity at 0.063 µM [7]: 109%; remaining activity at 0.125 µM [7]: 102%; remaining activity at 0.125 µM [6]: 95.7%; remaining activity at 0.313 µM [7]: 93%; remaining activity at 0.625 µM [7]: 87%; remaining activity at 1.5 µM [7]: 72.5%
